Experimental data taken from PubChem BioAssay AID652112 (The Scripps Research Institute Molecular Screening Center, 2013).

Target: Serine/threonine-protein phosphatase PP1-alpha catalytic subunit (Homo sapiens) (UniProt P62136)
Assay: PP1 inhibitor potency on phosphorylase dephosphorylation, dose response, orthogonal assay for PP1 inhibitor probe project, biochemical, radiolabel, phosphorylase substrate, powder samples (AID 652112)
Settings: purified PP1, 32P/33P-phosphorylase dephosphorylation, scintillation

Chain of Serine/threonine-protein phosphatase PP1-alpha catalytic subunit (Homo sapiens) (P62136 whole entry, looked up): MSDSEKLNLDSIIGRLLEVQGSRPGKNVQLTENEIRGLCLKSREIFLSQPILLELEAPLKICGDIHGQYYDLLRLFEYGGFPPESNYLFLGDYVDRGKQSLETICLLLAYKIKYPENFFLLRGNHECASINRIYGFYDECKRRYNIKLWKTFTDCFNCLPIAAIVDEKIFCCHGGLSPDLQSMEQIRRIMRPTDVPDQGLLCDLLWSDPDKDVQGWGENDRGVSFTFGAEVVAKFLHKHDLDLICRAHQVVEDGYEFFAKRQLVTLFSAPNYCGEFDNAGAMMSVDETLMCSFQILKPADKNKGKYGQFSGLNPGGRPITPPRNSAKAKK

Row | SMILES | IC50 [µM]
1 | CCOC(=O)c1sc2nc3c(SCC(=O)O)cc(C(=O)c4cc(F)ccc4O)cn3c(=O)c2c1C | 8.54
2 | N#Cc1c(-c2ccc(Cl)cc2)cc(-c2cccs2)nc1SCC(=O)O | 21.9
3 | CN1CCN(C(c2ccccn2)c2cc(Cl)c3cccnc3c2O)CC1 (stereo not given) | 4.89
4 | COc1ccc(NC(=O)C2C3CCC(O3)C2C(=O)O)c(OC)c1 (stereo not given) | 18.9
5 | CCn1c2ccccc2c2cc(NC(=O)COC(=O)c3ccc(NC(=O)CC#N)cc3)ccc21 | 38
